Assays:
[1] = system: subjects undergoing embryo transfer therapy; assay: Phase 2 clinical study: pregnancy and live birth after embryo transfer; assay type: in vivo, human
Source text: A total of 247 female subjects were selected for treatment based on a variety of inclusion criteria. Of these, 244 subjects completed the study. The study was open to healthy female volunteers from 18 to 36 years of age that had previously undergone up to one IVF or ICSI cycle that resulting in a negative pregnancy test as assessed by hCG detection, despite the transfer of at least one embryo of good quality, which was defined as an embryo having from six to eight blastomeres of uniform size and shape on the day of embryo transfer, ooplasm having no granularity, absence of multinucleation, and a maximum fragmentation of 10%. Subjects included in the study had at least one functional ovary and were capable of communicating with the investigator and research staff and complying with the requirements of the study protocol. Data are presented in the form of mean (standard deviation).
Subjects included in the study underwent an initial screening period beginning up to 12 weeks prior to the day of oocyte retrieval from the subject. During this 12-week period, subjects underwent physical and gynecological examination in preparation for oocyte retrieval. This analysis included a recordation of the subjects' vital signs, hematology and biochemistry analysis of blood samples withdrawn from the subjects, urinary analysis, and a comprehensive review of the subjects' medical histories.
At the conclusion of the screening period, subjects underwent controlled ovarian hyperstimulation by administration of a GnRH antagonist so as to prevent a premature rise in serum LH concentration. Concurrent pre-treatment with an oral contraceptive prior to controlled ovarian hyperstimulation was allowed, but not required. Final follicular maturation was performed with a single administration of hCG to the subject. Luteal support was performed by intravaginal administration of micronized natural progesterone at a dose of 600 mg (3×200 mg dosage forms) daily, commencing within 6-24 hours of oocyte retrieval. Progesterone administration continued for at least 6 weeks following embryo transfer for subjects testing positive for pregnancy at 14 days following embryo transfer. Retrieved oocytes contained at least 1-4 mature oocytes (i.e., ova), which were subsequently used for IVF or ICSI for embryo generation.
The embryo transfer procedure was conducted three days after the oocyte retrieval day (OPU+3 days). Subjects undergoing embryo transfer were monitored prior to initiating the procedure. This analysis included a recordation of vital signs, as well as a transvaginal ultrasound to assess uterine contraction rate and endometrial thickness. […] Eligible subjects subsequently underwent blood sample analysis to determine pre-treatment levels of serum E2 and P4.
(§1) From one to two embryos of good quality were transferred to each subject. To reduce uterine contractions at the time of embryo transfer, soft or ultra-soft catheters were used and contact with the uterine fundus was avoided. Any difficulties that occurred during the embryo transfer procedure were recorded, including instances in which uterine sounding or cervical dilation were required, instances in which a harder catheter was required, or instances in which blood was found in any part of the catheter.
Approximately 1 hour following embryo transfer, subjects underwent a final physical examination and were subsequently discharged from the clinical unit until the first follow-up visit, which occurred at about 14 days following oocyte retrieval (OPU+14 days). At this time, subjects underwent a physical examination as well as a blood sample analysis to assess pregnancy by detection of hCG. Subjects testing positive for pregnancy continued the study and were scheduled for follow-up examinations at about 6 weeks following embryo transfer and at about 10 weeks following oocyte retrieval (OPU+10 weeks). Subjects that returned for examination at about 6 weeks following embryo transfer underwent ultrasound analysis. […]

[2] = serum compound (II) level at time of embryo transfer (Phase 2 study); assay type: in vivo; details: female, human, oral, about 3.5 hours after administration, mean (standard deviation)
Method: as §1

CYP2D6 = CYP2D6 (Homo sapiens, UniProt P10635); assay: metabolism by CYP2D6 isoform; assay type: in vitro ADME; details: for Compound Remaining (% of compound present at t = 0 min): 5 μM
Method: At five time points over the course of a 45 minute experiment, the compounds were analyzed by LC-MS/MS. The percentage of each compound remaining at each time point, along with the metabolic half-lives of each compound in the presence of each cytochrome P450 isoform, are indicated in Tables 10-12, below.

HEK293EBNA cells = details: suppressing Ca^2+ mobilization in cultured HEK293EBNA cells; cited from earlier work
[3] = All P4 quartiles, 1 embryo transferred, 100 mg dose
[4] = All P4 quartiles, 1 embryo transferred, 300 mg dose
[5] = All P4 quartiles, 1 embryo transferred, 900 mg dose
[6] = All P4 quartiles, 1 embryo transferred, All doses
[7] = All P4 quartiles, 2 embryos transferred, 100 mg dose
[8] = All P4 quartiles, 2 embryos transferred, 300 mg dose
[9] = All P4 quartiles, 2 embryos transferred, 900 mg dose
[10] = All P4 quartiles, 2 embryos transferred, All doses
[11] = Excluding upper P4 quartile, 1 embryo transferred, 100 mg dose
[12] = Excluding upper P4 quartile, 1 embryo transferred, 300 mg dose
[13] = Excluding upper P4 quartile, 1 embryo transferred, 900 mg dose
[14] = Excluding upper P4 quartile, 1 embryo transferred, All doses
[15] = Excluding upper P4 quartile, 2 embryos transferred, 100 mg dose
[16] = Excluding upper P4 quartile, 2 embryos transferred, 300 mg dose
[17] = Excluding upper P4 quartile, 2 embryos transferred, 900 mg dose
[18] = Excluding upper P4 quartile, 2 embryos transferred, All doses
[19] = excluding subjects from pre-treatment serum P4 concentration Q4, 100 mg dose
[20] = excluding subjects from pre-treatment serum P4 concentration Q4, 300 mg dose
[21] = excluding subjects from pre-treatment serum P4 concentration Q4, 900 mg dose
[22] = excluding subjects from pre-treatment serum P4 concentration Q4, All doses

Chain of CYP2D6 (P10635 whole entry, canonical isoform): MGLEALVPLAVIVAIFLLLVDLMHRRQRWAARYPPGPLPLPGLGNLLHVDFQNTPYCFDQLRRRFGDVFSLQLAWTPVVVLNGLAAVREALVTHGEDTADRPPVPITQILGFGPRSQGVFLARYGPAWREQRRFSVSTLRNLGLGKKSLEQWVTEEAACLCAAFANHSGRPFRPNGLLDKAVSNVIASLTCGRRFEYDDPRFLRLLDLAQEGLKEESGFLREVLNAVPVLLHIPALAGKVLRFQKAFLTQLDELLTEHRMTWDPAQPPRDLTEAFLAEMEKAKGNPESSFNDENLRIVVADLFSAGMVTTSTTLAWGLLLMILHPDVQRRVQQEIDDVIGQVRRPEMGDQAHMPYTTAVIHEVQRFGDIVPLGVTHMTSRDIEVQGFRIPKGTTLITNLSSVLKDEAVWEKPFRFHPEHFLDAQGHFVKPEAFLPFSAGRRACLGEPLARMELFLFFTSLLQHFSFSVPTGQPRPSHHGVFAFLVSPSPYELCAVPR

For `CO/N=C1/C[C@@H](CO)N(C(=O)c2ccc(-c3ccccc3C)cc2)C1` [Compound (II), (3Z,5S)-5-(hydroxymethyl)-1-[(2′-methyl-1,1′-biphenyl-4-yl)carbonyl]pyrrolidin-3-one O-methyloxime], the “Live birth rate at a gestational age of at least 24 weeks” value [1, 3] was “(33.33%)”, the “Live birth rate at a gestational age of at least 24 weeks, Frequency” value [1, 3] was 13/39 and the “Live birth rate at a gestational age of at least 24 weeks” value [1, 4] was “(33.33%)”. For the same compound, the “Live birth rate at a gestational age of at least 24 weeks, Frequency” value [1, 4] was 12/36, the “Live birth rate at a gestational age of at least 24 weeks” value [1, 5] was “(40.00%)” and the “Live birth rate at a gestational age of at least 24 weeks, Frequency” value [1, 5] was 14/35. The “Live birth rate at a gestational age of at least 24 weeks” value [1, 6] was “(35.45%)”, the “Live birth rate at a gestational age of at least 24 weeks, Frequency” value [1, 6] was 39/110 and the “Live birth rate at a gestational age of at least 24 weeks” value [1, 7] was “(52.17%)”. The “Live birth rate at a gestational age of at least 24 weeks, Frequency” value [1, 7] was 12/23, the “Live birth rate at a gestational age of at least 24 weeks” value [1, 8] was “(37.50%)” and the “Live birth rate at a gestational age of at least 24 weeks, Frequency” value [1, 8] was 9/24. For the same compound, the “Live birth rate at a gestational age of at least 24 weeks” value [1, 9] was “(50.00%)”, the “Live birth rate at a gestational age of at least 24 weeks, Frequency” value [1, 9] was 12/24 and the “Live birth rate at a gestational age of at least 24 weeks” value [1, 10] was “(46.48%)”. The “Live birth rate at a gestational age of at least 24 weeks, Frequency” value [1, 10] was 33/71, the “Live birth rate at a gestational age of at least 24 weeks” value [1, 11] was “(32.35%)” and the “Live birth rate at a gestational age of at least 24 weeks, Frequency” value [1, 11] was 11/34. For the same compound, the “Live birth rate at a gestational age of at least 24 weeks” value [1, 12] was “(45.45%)”, the “Live birth rate at a gestational age of at least 24 weeks, Frequency” value [1, 12] was 10/22 and the “Live birth rate at a gestational age of at least 24 weeks” value [1, 13] was “(44.83%)”. The “Live birth rate at a gestational age of at least 24 weeks, Frequency” value [1, 13] was 13/29, the “Live birth rate at a gestational age of at least 24 weeks” value [1, 14] was “(40.00%)” and the “Live birth rate at a gestational age of at least 24 weeks, Frequency” value [1, 14] was 34/85. For the same compound, the “Live birth rate at a gestational age of at least 24 weeks” value [1, 15] was “(50.00%)”, the “Live birth rate at a gestational age of at least 24 weeks, Frequency” value [1, 15] was 8/16 and the “Live birth rate at a gestational age of at least 24 weeks” value [1, 16] was “(53.85%)”. For the same compound, the “Live birth rate at a gestational age of at least 24 weeks, Frequency” value [1, 16] was 7/13, the “Live birth rate at a gestational age of at least 24 weeks” value [1, 17] was “(60.00%)” and the “Live birth rate at a gestational age of at least 24 weeks, Frequency” value [1, 17] was 12/20. For the same compound, the “Live birth rate at a gestational age of at least 24 weeks” value [1, 18] was “(55.10%)”, the “Live birth rate at a gestational age of at least 24 weeks, Frequency” value [1, 18] was 27/49 and the “Live birth rate at gestational age of at least 24 weeks” value ([1]; all subjects, 100 mg dose) was 40.3%. For the same compound, the “Ongoing pregnancy rate at 6 weeks post embryo transfer” value ([1]; all subjects, 100 mg dose) was 46.8%, the “Ongoing pregnancy rate at 10 weeks post oocyte retrieval” value ([1]; all subjects, 100 mg dose) was 43.5% and the “Positive pregnancy test at 14 days post embryo transfer” value (from here on “Positive pregnancy test”) ([1]; all subjects, 100 mg dose) was 56.5%. For the same compound, the “Live birth rate at gestational age of at least 24 weeks” value ([1]; all subjects, 300 mg dose) was 35.0%, the “Ongoing pregnancy rate at 6 weeks post embryo transfer” value ([1]; all subjects, 300 mg dose) was 35.0% and the “Ongoing pregnancy rate at 10 weeks post oocyte retrieval” value ([1]; all subjects, 300 mg dose) was 35.0%. For the same compound, the “Positive pregnancy test” value ([1]; all subjects, 300 mg dose) was 50.0%, the “Live birth rate at gestational age of at least 24 weeks” value ([1]; all subjects, 900 mg dose) was 43.3% and the “Ongoing pregnancy rate at 6 weeks post embryo transfer” value ([1]; all subjects, 900 mg dose) was 46.7%. For the same compound, the “Ongoing pregnancy rate at 10 weeks post oocyte retrieval” value ([1]; all subjects, 900 mg dose) was 45.0%, the “Positive pregnancy test” value ([1]; all subjects, 900 mg dose) was 53.3% and the “Live birth rate at gestational age of at least 24 weeks” value ([1]; all subjects, All doses) was 39.6%. The “Ongoing pregnancy rate at 6 weeks post embryo transfer” value ([1]; all subjects, All doses) was 42.9%, the “Ongoing pregnancy rate at 10 weeks post oocyte retrieval” value ([1]; all subjects, All doses) was 41.2% and the “Absolute increase in live birth rate vs placebo” value (“Absolute increase” for short) [1, 19] was 7.4%. The “Live birth rate at gestational age of at least 24 weeks” value [1, 19] was 38.0%, the “Live birth rate at gestational age of at least 24 weeks, frequency” value (shortened to “Live birth rate at gestational age … frequency”) [1, 19] was 19/50; and the “Ongoing pregnancy rate at 6 weeks post embryo transfer” value [1, 19] was 44.0%. For the same compound, the “Ongoing pregnancy rate at 10 weeks post oocyte retrieval” value [1, 19] was 42.0%, the “Positive pregnancy test” value [1, 19] was 54.0% and the “Absolute increase” value [1, 20] was 18.0%. The “Live birth rate at gestational age of at least 24 weeks” value [1, 20] was 48.6%, the “Live birth rate at gestational age … frequency” value [1, 20] was 17/35; and the “Ongoing pregnancy rate at 6 weeks post embryo transfer” value [1, 20] was 48.6%. The “Ongoing pregnancy rate at 10 weeks post oocyte retrieval” value [1, 20] was 48.6%, the “Positive pregnancy test” value [1, 20] was 62.9% and the “Absolute increase” value [1, 21] was 20.4%. For the same compound, the “Live birth rate at gestational age of at least 24 weeks” value [1, 21] was 51.0%, the “Live birth rate at gestational age … frequency” value [1, 21] was 25/49; and the “Ongoing pregnancy rate at 6 weeks post embryo transfer” value [1, 21] was 53.1%. For the same compound, the “Ongoing pregnancy rate at 10 weeks post oocyte retrieval” value [1, 21] was 51.0%, the “Positive pregnancy test” value [1, 21] was 59.2% and the “Absolute increase” value [1, 22] was 14.9%. For the same compound, the “Live birth rate at gestational age of at least 24 weeks” value [1, 22] was 45.5%, the “Live birth rate at gestational age … frequency” value [1, 22] was 61/134; and the “Ongoing pregnancy rate at 6 weeks post embryo transfer” value [1, 22] was 48.5%. For the same compound, the “Ongoing pregnancy rate at 10 weeks post oocyte retrieval” value [1, 22] was 47.0%, the concentration at 3.5 h ([2]; 100 mg dose) was 484 ng/mL and the concentration at 3.5 h ([2]; 300 mg dose) was 1450 ng/mL. For the same compound, the concentration at 3.5 h ([2]; 900 mg dose) was 4160 ng/mL, the “Compound Remaining (% of compound present at t = 0 min)” value (CYP2D6; 0 min) was 100% and the “Compound Remaining (% of compound present at t = 0 min)” value (CYP2D6; 5 min) was 80.3%. The “Compound Remaining (% of compound present at t = 0 min)” value (CYP2D6; 15 min) was 50.5%, the “Compound Remaining (% of compound present at t = 0 min)” value (CYP2D6; 30 min) was 22.5% and the “Compound Remaining (% of compound present at t = 0 min)” value (CYP2D6; 45 min) was 12.2%. The half-life at 5 μM (CYP2D6; human) was 14.5 min and the IC50 (HEK293EBNA cells) was 81 nM.

Reference: patent US20190247361A1, “OXYTOCIN ANTAGONIST DOSING REGIMENS FOR PROMOTING EMBRYO IMPLANTATION AND PREVENTING MISCARRIAGE” (ObsEva S.A., priority 2016, published 2019)
